Values after ≈ are worked out from the molar mass of the structure shown.
Tests used:
Experiment in all cases: in vitro antibacterial evaluation, MIC by broth dilution
Format in all cases: cell-based
Enterococcus sp. = details: broth dilution, 18 hours at 35° C.
Method in brief: (§1)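 MIC = lowest antibiotic concentration preventing visible growth; inoculum 5×10^5 CFU/mL; drug range 64-0.06 μg/mL; Muller-Hinton II […]; NCCLS M7-A2 guidance.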

Staphylococcus sp. = details: broth dilution, 18 hours at 35° C.; for MIC Staphylococcus aureus (GC 1131): strain GC 1131
Method in brief: as §1

Streptococcus sp. = details: broth dilution, 18 hours at 35° C.
Method in brief: as §1

Escherichia coli = details: 18 hours at 35° C.

MIC Enterococcus avium (GC 4558) (Enterococcus sp.): 2 mg/L (≈ 1.4 µM)
MIC Enterococcus faecalis (ATCC 29212) (Enterococcus sp.): 1 mg/L (≈ 0.702 µM)
MIC Enterococcus faecalis (GC 2242) (Enterococcus sp.): 1 mg/L (≈ 0.702 µM)
MIC Enterococcus faecalis (GC 2691) (Enterococcus sp.): 2 mg/L (≈ 1.4 µM)
MIC Enterococcus faecalis (GC 3059) (Enterococcus sp.): 1 mg/L (≈ 0.702 µM)
MIC Enterococcus faecalis (GC 4552) (Enterococcus sp.): 1 mg/L (≈ 0.702 µM)
MIC Enterococcus faecalis (GC 4553) (Enterococcus sp.): 2 mg/L (≈ 1.4 µM)
MIC Enterococcus faecalis (GC 4554) (Enterococcus sp.): 2 mg/L (≈ 1.4 µM)
MIC Enterococcus faecalis (GC 6189) (Enterococcus sp.): 0.5 mg/L (≈ 0.351 µM)
MIC Enterococcus faecium (GC 2243) (Enterococcus sp.): 1 mg/L (≈ 0.702 µM)
MIC Enterococcus faecium (GC 4556) (Enterococcus sp.): 1 mg/L (≈ 0.702 µM)
MIC Enterococcus faecium (GC 4557) (Enterococcus sp.): 2 mg/L (≈ 1.4 µM)
MIC Enterococcus faecalis (ATCC 29212) (Enterococcus sp.; inoculum 5×10^5 CFU/mL, strain ATCC 29212): 1 mg/L (≈ 0.702 µM)
MIC Enterococcus faecalis (GC 2242) (Enterococcus sp.; inoculum 5×10^5 CFU/mL, strain GC 2242): 1 mg/L (≈ 0.702 µM)
MIC Enterococcus faecium (GC 2243) (Enterococcus sp.; inoculum 5×10^5 CFU/mL, strain GC 2243): 1 mg/L (≈ 0.702 µM)
MIC Enterococcus faecalis (GC 2691) (Enterococcus sp.; inoculum 5×10^5 CFU/mL, strain GC 2691): 2 mg/L (≈ 1.4 µM)
MIC Enterococcus faecalis (GC 3059) (Enterococcus sp.; inoculum 5×10^5 CFU/mL, strain GC 3059): 1 mg/L (≈ 0.702 µM)
MIC Enterococcus faecalis (GC 4552) (Enterococcus sp.; inoculum 5×10^5 CFU/mL, strain GC 4552): 1 mg/L (≈ 0.702 µM)
MIC Enterococcus faecalis (GC 4553) (Enterococcus sp.; inoculum 5×10^5 CFU/mL, strain GC 4553): 2 mg/L (≈ 1.4 µM)
MIC Enterococcus faecalis (GC 4554) (Enterococcus sp.; inoculum 5×10^5 CFU/mL, strain GC 4554): 2 mg/L (≈ 1.4 µM)
MIC Enterococcus faecium (GC 4556) (Enterococcus sp.; inoculum 5×10^5 CFU/mL, strain GC 4556): 1 mg/L (≈ 0.702 µM)
MIC Enterococcus faecium (GC 4557) (Enterococcus sp.; inoculum 5×10^5 CFU/mL, strain GC 4557): 2 mg/L (≈ 1.4 µM)
MIC Enterococcus avium (GC 4558) (Enterococcus sp.; inoculum 5×10^5 CFU/mL, strain GC 4558): 2 mg/L (≈ 1.4 µM)
MIC Enterococcus faecalis (GC 6189) (Enterococcus sp.; inoculum 5×10^5 CFU/mL, strain GC 6189): 0.5 mg/L (≈ 0.351 µM)
MIC Staphylococcus aureus (GC 1131) (Staphylococcus sp.; inoculum 5×10^5 CFU/mL): 1 mg/L (≈ 0.702 µM)
MIC Staphylococcus aureus (ATCC 29213) (Staphylococcus sp.; strain ATCC 29213): 0.5 mg/L (≈ 0.351 µM)
MIC Staphylococcus aureus (GC 1131) (Staphylococcus sp.): 1 mg/L (≈ 0.702 µM)
MIC Staphylococcus aureus (GC 3051) (Staphylococcus sp.; strain GC 3051): 1 mg/L (≈ 0.702 µM)
MIC Staphylococcus aureus (GC 3053) (Staphylococcus sp.; strain GC 3053): 0.5 mg/L (≈ 0.351 µM)
MIC Staphylococcus aureus (GC 4541) (Staphylococcus sp.; strain GC 4541): 0.5 mg/L (≈ 0.351 µM)
MIC Staphylococcus aureus (GC 4542) (Staphylococcus sp.; strain GC 4542): 0.25 mg/L (≈ 0.176 µM)
MIC Staphylococcus aureus-SMITH (GC 4543) (Staphylococcus sp.; strain GC 4543): 0.5 mg/L (≈ 0.351 µM)
MIC Staphylococcus aureus (GC 4544) (Staphylococcus sp.; strain GC 4544): 1 mg/L (≈ 0.702 µM)
MIC Staphylococcus aureus (GC 4545) (Staphylococcus sp.; strain GC 4545): 0.5 mg/L (≈ 0.351 µM)
MIC Coagulase Negative Staphylococcus (GC 4547) (Staphylococcus sp.; strain GC 4547): 1 mg/L (≈ 0.702 µM)
MIC Coagulase Negative Staphylococcus (GC 4548) (Staphylococcus sp.; strain GC 4548): 0.25 mg/L (≈ 0.176 µM)
MIC Coagulase Negative Staphylococcus (GC 4549) (Staphylococcus sp.; strain GC 4549): 0.25 mg/L (≈ 0.176 µM)
MIC Coagulase Negative Staphylococcus (GC 4551) (Staphylococcus sp.; strain GC 4551): 0.5 mg/L (≈ 0.351 µM)
MIC Coagulase Negative Staphylococcus (GC 6257) (Staphylococcus sp.; strain GC 6257): 0.25 mg/L (≈ 0.176 µM)
MIC Streptococcus agalactiae (GC 4564) (Streptococcus sp.): <0.06 mg/L
MIC Streptococcus pneumoniae (ATCC 6301) (Streptococcus sp.): 0.12 mg/L (≈ 0.0843 µM)
MIC Streptococcus pneumoniae (GC 1894) (Streptococcus sp.): <0.06 mg/L
MIC Streptococcus pneumoniae (GC 4565) (Streptococcus sp.): <0.06 mg/L
MIC Streptococcus pyogenes (GC 4563) (Streptococcus sp.): <0.06 mg/L
MIC Streptococcus pneumoniae (ATCC 6301) (Streptococcus sp.; inoculum 5×10^5 CFU/mL, strain ATCC 6301): 0.12 mg/L (≈ 0.0843 µM)
MIC Streptococcus pneumoniae (GC 1894) (Streptococcus sp.; inoculum 5×10^5 CFU/mL, strain GC 1894): <0.06 mg/L
MIC Streptococcus pyogenes (GC 4563) (Streptococcus sp.; inoculum 5×10^5 CFU/mL, strain GC 4563): <0.06 mg/L
MIC Streptococcus agalactiae (GC 4564) (Streptococcus sp.; inoculum 5×10^5 CFU/mL, strain GC 4564): <0.06 mg/L
MIC Streptococcus pneumoniae (GC 4565) (Streptococcus sp.; inoculum 5×10^5 CFU/mL, strain GC 4565): <0.06 mg/L
MIC Escherichia coli (GC 4559) (Escherichia coli): 32 mg/L (≈ 22.5 µM)
MIC Escherichia coli (GC 4560) (Escherichia coli): 2 mg/L (≈ 1.4 µM)
Structure (SMILES): CC(c1ccc(Cl)cc1)C1NC(=O)CNC(=O)C(CO)NC(=O)C(C(O)C2CNC(=N)N2C2OC(CO)C(O)C(O)C2O)NC(=O)C(C(O)C2CNC(=N)N2)NC(=O)C(Cc2ccc(OC3OC(CO)C(OC4OC5COC(C6CCCCC6)OC5C(O)C4O)C(O)C3O)cc2)NC1=O (stereo not shown) [Example 193]
MIC Staphylococcus haemolyticus (GC 4546) (Staphylococcus sp.; strain GC 4546): 0.5 mg/L (≈ 0.351 µM)
